Laboratory results from patent US4960900A, “Oxyimino derivatives of thiazole, method of preparation and use in therapy” (priority 1987, dated 1990).
“Also recorded” adds a separate entry of the source. Like-named read-outs stand apart in the source and are kept apart here.

Key:
[1] = prior art documents; cited from earlier work
[2] = prior art documents; cited from earlier work; remark: listed apart in the source
[3] = in vivo; details: mouse, in vivo, po; for selectivity ratio: LD50 per os/ED50 per os
Experimental: (§1) The toxicity of the products to be studied was investigated by the oral administration, using an esophageal tube, of each of the said products to male mice with a body weight of 18 to 22 g, divided into groups each containing 10 to 20 animals. The mortality was recorded over a 14-day period.
(§2) The results obtained, which are expressed in the form of LD50 in mg/kg, are collated in Table II below.

[4] = tested on: male mice; assay: in vivo; details: for Therapeutic index MCE / Therapeutic index PTZ: LD50 per os/ED50 per os; for LD50: male mice
Experimental: as §1, §2

[5] = tested on: convulsions induced by pentetrazole (PTZ); assay: Anticonvulsant properties: convulsions induced by pentetrazole (PTZ), oral, mice; format: in vivo; details: per os, male mice, 30 min after administration, pentetrazole 125 mg/kg i.p.; for ED50: Mus musculus, po, 0.5 h, read-out: ED50 in respect of convulsions induced by PTZ; for ED50 in respect of convulsions induced by PTZ: 30 min
[6] = tested on: convulsions induced by supramaximal electroshock (MCE); assay: Anticonvulsant properties: convulsions induced by supramaximal electroshock (MCE), oral, mice; format: in vivo; details: per os, male mice, 30 min after administration; for ED50: Mus musculus, po, 0.5 h, read-out: ED50 in respect of convulsions induced by MCE
From the text: MCE: supramaximal electroshock;
*: ED50 in mg/kg, determined per os on groups each containing ten

[7] = in vivo; format: in vivo; details: mouse, in vivo, po
Experimental: (§3) The neurotoxic properties were assessed on male mice by the so-called "Rota-rod" test carried out thirty minutes after the oral administration of the substances to be studied. The animals (divided into groups each containing ten male mice per dose and per product) are installed on the rod and their fall is observed over the next two minutes.
(§4) The results obtained are expressed in the form of the 50% neurotoxic dose (TD50) per os, which is the dose causing 50% of the animals to fall.
(§5) Protection index: TD50 per os/ED50 per os
(§6) *dose determined per os on groups each containing ten male mice.

[8] = tested on: male mice; assay: in vivo; format: in vivo
Experimental: as §3, §4, §5, §6

[9] = tested on: convulsive seizures; assay: Anticonvulsant properties in mice, overall statement (PTZ and MCE); format: in vivo, male mice; details: for most effective products according to the invention: in view of protection and therapeutic indices, Table IV
Experimental: The anticonvulsant properties were investigated on male mice, thirty minutes after the oral administration of the substances to be studied, by the induction of convulsive seizures.
These seizures are caused either by the intraperitoneal injection of pentetrazole (125 mg/kg) or by electrical stimulation of the cornea (supra-maximal electroshock, abbreviated to MCE).
The results, expressed in the form of the 50% effective dose (ED50) per os (dose protecting 50% of the animals), are collated in Table III below.

[10] = LD50, Table II, male mice, 14 days
[11] = LD50, Table IV, per os, male mice
[12] = TD50 per os/ED50 per os, MCE, read-out: Protection index MCE
[13] = TD50 per os/ED50 per os, PTZ, read-out: Protection index PTZ
[14] = Rota-rod, per os, male mice, 30 min after administration, read-out: TD50
[15] = versus sodium valproate and trimethadione

SMILES	LD50 at 336 h [3, 10]	LD50 at 336 h [3, 11]	selectivity ratio ([3]; Therapeutic index MCE, MCE)	selectivity ratio ([3]; Therapeutic index PTZ, PTZ)	ED50 [5]	ED50 [6]	selectivity ratio ([7]; Protection index MCE)	selectivity ratio ([7]; Protection index PTZ)	TD50 at 0.5 h ([7]; TD50)	also measured
Cc1ncsc1C(C)O (centres unmarked) [1-(4-methylthiazol-5-yl)ethanol]	–	–	–	–	–	–	–	–	–	anticonvulsant properties (prior art) [1]: possesses anticonvulsant properties; also recorded: is an anticonvulsant; antihypoxic properties (prior art) [2]: devoid of beneficial antihypoxic effects
Cc1ncsc1CO [5-hydroxymethyl-4-methylthiazole]	–	–	–	–	–	–	–	–	–	anticonvulsant properties (prior art) [1]: devoid of anticonvulsant effects
CON=C(C)c1scnc1C [Ex. 1, 5-(1-methoxyiminoethyl)-4-methylthiazole]	740 mg/kg	740 mg/kg	8.8	11.9	62 mg/kg	84 mg/kg	4.1	5.6	347 mg/kg	therapeutic indices compared with the reference products ([4]; mouse, in vivo): better than those of the reference products; protection indices compared with the reference products ([8]; mouse, in vivo): better than those of the reference products
CON=C(C)c1scnc1C.Cl [Ex. 2, 5-(1-methoxyiminoethyl)-4-methylthiazole hydrochloride]	1000 mg/kg	1000 mg/kg	–	–	72 mg/kg	100 mg/kg	–	–	270 mg/kg	Therapeutic index MCE [4]: 10.0; Therapeutic index PTZ [4]: 13.9; Protection index MCE ([8]; mouse, in vivo, po): 2.7; Protection index PTZ ([8]; mouse, in vivo, po): 3.8
CO/N=C(\C)c1scnc1C [Ex. 3, 5-(1-methoxyiminoethyl)-4-methylthiazole]	570 mg/kg	570 mg/kg	5.9	6.3	91 mg/kg	97 mg/kg	3	3.2	290 mg/kg	activity as an anticonvulsant ([9]; pure E isomer versus mixture E/Z=91/9): less active than the corresponding mixture E/Z=91/9
CCON=C(C)c1scnc1C [Ex. 4]	1000 mg/kg	–	–	–	120 mg/kg	150 mg/kg	–	–	–	–
CCON=C(C)c1scnc1C [Ex. 5]	–	–	8.3	10	–	–	6.3	7.5	750 mg/kg	LD50 at 336 h ([3]; LD50): 1000 mg/kg; therapeutic indices compared with the reference products ([4]; mouse, in vivo): better than those of the reference products; ED50 in respect of convulsions induced by PTZ [5]: 100 mg/kg; ED50 in respect of convulsions induced by MCE ([6]; 30 min): 120 mg/kg; protection indices compared with the reference products ([8]; mouse, in vivo): better than those of the reference products
CC(=NOC(C)C)c1scnc1C [Ex. 6]	> 1000 mg/kg	–	–	–	112 mg/kg	> 200 mg/kg	–	–	–	–
CC(=NOC(C)C)c1scnc1C [Ex. 7]	–	–	–	–	–	–	–	–	–	LD50 ([4]; Table II, oral, 14 days): > 1000 mg/kg; ED50 in respect of convulsions induced by PTZ [5]: 140 mg/kg; ED50 in respect of convulsions induced by MCE [6]: > 200 mg/kg
CCCCON=C(C)c1scnc1C [Ex. 8, 5-(1-n-butoxyiminoethyl)-4-methylthiazole]	750 mg/kg	–	–	–	> 200 mg/kg	> 200 mg/kg	–	–	–	–
CCCCON=C(C)c1scnc1C.Cl [Ex. 9, 5-(1-n-butoxyiminoethyl)-4-methylthiazole hydrochloride]	> 1000 mg/kg	> 1000 mg/kg	> 6.7	> 7.3	138 mg/kg	150 mg/kg	4	4.4	600 mg/kg	–
CC(=NOCc1ccccc1)c1scnc1C [Ex. 11, 5-(1-benzyloxyiminoethyl)-4-methylthiazole]	–	–	> 12.8	–	–	–	–	–	–	Therapeutic index PTZ [4]: > 21.7; LD50 ([4]; Table IV, per os, 20160 min): > 1000 mg/kg; ED50 in respect of convulsions induced by PTZ [5]: 46 mg/kg; ED50 in respect of convulsions induced by MCE ([6]; 30 min): 78 mg/kg; selectivity ratio [7, 12]: 12.8; selectivity ratio [7, 13]: 21.7; TD50 at 0.5 h [7, 14]: 1000 mg/kg; most effective products according to the invention [9]: most effective
CC(=NOCc1ccccc1)c1scnc1C [Ex. 12]	–	–	–	–	–	–	8.6	13.5	1350 mg/kg	LD50 at 336 h ([3]; LD50): > 1000 mg/kg; Therapeutic index MCE [4]: > 6.4; Therapeutic index PTZ [4]: > 10.0; therapeutic indices compared with the reference products ([4]; mouse, in vivo): better than those of the reference products; ED50 in respect of convulsions induced by PTZ [5]: 100 mg/kg; ED50 in respect of convulsions induced by MCE ([6]; 30 min): 157 mg/kg; protection indices compared with the reference products ([8]; mouse, in vivo): better than those of the reference products; most effective products according to the invention [9]: most effective
CC(=NOCc1ccccc1F)c1scnc1C [Ex. 13]	–	–	> 5.4	> 9.5	105 mg/kg	184 mg/kg	–	–	–	LD50 at 336 h [3]: > 1000 mg/kg; LD50 ([4]; Table IV, per os, 20160 min): > 1000 mg/kg; therapeutic indices compared with the reference products [4, 15]: better than those of the reference products; selectivity ratio [7, 12]: 4; selectivity ratio [7, 13]: 7.1; TD50 at 0.5 h [7, 14]: 750 mg/kg; protection indices compared with the reference products [8, 15]: better than those of the reference products
CC(=NOCc1cccc(Cl)c1)c1scnc1C [Ex. 14]	> 1000 mg/kg	> 1000 mg/kg	–	> 7.1	140 mg/kg	> 200 mg/kg	–	–	–	selectivity ratio [7, 13]: 5.4; TD50 at 0.5 h [7, 14]: 750 mg/kg
CC(=NOCc1ccccc1C)c1scnc1C [Ex. 15]	> 1000 mg/kg	–	–	–	60 mg/kg	–	–	–	–	–
